Like-named read-outs stand apart in the source and are kept apart here.
Legend:
[1] = test system: male mealybugs (long-tailed mealybug); settings: 25 μg, field trials, cited from earlier work
[2] = test system: male long tailed mealybugs (P. longispinus); assay: Field bioassay of the pheromone enantiomers and the racemate (delta sticky traps); assay type: in vivo, Pseudococcus longispinus; settings: for attractiveness to male mealybugs (trap catches): traps 6 d + 11 d
Procedure: FIG. 1 depicts Male long tailed mealybugs caught in traps baited with each of the enantiomers of the pheromone, and the racemate. No mealybugs were caught in solvent treated controls.
(The field trials on vineyards were conducted with the help of Prof. Jocelyn Millar, University of California, Riverside, USA)
A field bioassay of the pheromone was conducted at a nursery in Bonsall, Calif., USA, in a 0.49 ha plot of Ruscus hypoglossum L. (plot coordinates: 33°17′18.36″ N, 117°16′55.61″ W elev 113 m) that was known to be infested with P. longispinus. The plot was divided into seven hoop houses (63 m long×7 m wide), six of which were used in this study. Each house (block) was covered in plastic with open ends. Airflow between houses was not restricted because the plastic cover began 1 m above the plant canopy. Four delta sticky traps were spaced every 12.5 m along a transect within each house, suspended directly above the ruscus canopy. Each trap contained an 11 mm gray rubber septum impregnated with a hexane solution of one of four treatments: solvent control, 5 μg of (S)-(+)-enantiomer, 5 μg of (R)-(−)-enantiomer, 10 μg of the racemate. Treatments were assigned randomly along each transect. Traps were replaced, and treatments were repositioned once after 6 d. Traps remained in place for another 11 d. Trap count data were analyzed by analysis of variance after √(x+0.5) transformation of the data to meet the assumptions of normality and equal variances. Differences among means were tested using Tukey's honestly significant differences (HSD) test. There was no significant interaction between the two sampling periods (date) and the treatments (F=3.23, df=2, 30, and P=0.054). Thus, data for each date were combined for the final analysis. There was both a significant effect of date (F=10.19, df=2, 32, P=0.0032) and treatment (F=130.04, df=2, 32, P<0.0001). Controls were not included in the analysis because their zero values and lack of variance violate the assumptions of ANOVA.

[3] = 5 μg enantiomer on rubber septum in delta sticky trap, nursery plot of Ruscus hypoglossum

Row | Structure (SMILES) | attractiveness to male mealybugs and its duration ([1]; listed as racemic form of the pheromone) | attractiveness to male mealybugs and its duration ([1]; listed as racemic pheromone) | attractiveness to male mealybugs (trap catches) ([2]; 10 μg of the racemate on rubber septum in delta sticky trap) | attractiveness to male mealybugs (trap catches) [2, 3] | inhibitory effect of the enantiomer on attraction ([2]; inferred from racemate (10 μg) versus pure enantiomer (5 μg)) | attractiveness to male mealybugs (trap catches) ([2]; 5 μg enantiomer on rubber septum in delta sticky trap, nursery plot of Ruscus hypoglossum, listed as (+)1)
1 | CC(=O)OCCC1(C)C=CCC1(C)C (racemic) [racemate (±1), 2-(1,5,5-trimethylcyclopent-2-en-1-yl) ethyl acetate] | sufficient to attract mealy bug for three months | highly attractive to male mealybugs for more than three months | as attractive as the pure enantiomer | – | – | –
2 | CC(=O)OCC[C@]1(C)C=CCC1(C)C [(R)-(−)-enantiomer, (−) 2-(1,5,5-trimethylcyclopent-2-en-1-yl)ethyl acetate] | – | – | – | only slightly more attractive than solvent-treated controls | not inhibitory | –
3 | CC(=O)OCC[C@@]1(C)C=CCC1(C)C [(S)-(+)-enantiomer, (+) 2-(1,5,5-trimethylcyclopent-2-en-1-yl)ethyl acetate] | – | – | – | highly attractive | – | more activity than racemic pheromone

— patent publication US9598346B2, “Enantioselective process for the preparation of enantiomers of sex pheromones” (COUNCIL OF SCIENTIFIC AND INDUSTRIAL RESEARCH, priority 2013, dated 2017)
